Assay results taken from ChEMBL document CHEMBL4033617, “Stereo-controlled synthesis of functionalized tetrahydropyridines based on the cyanomethylation of 1,6-dihydropyridines and generation of anti-hepatitis C virus agents” (Bioorg Med Chem, 2017).

System: Hepatitis C virus
Assay: Antiviral activity against Hepatitis C virus infected in human Huh7.5.1 cells after 72 hrs by focus formation assay
Format: functional, cell-based, Hepacivirus hominis
Conditions: Huh-7.5.1, 72 h

Row | IC50 [µM] | SMILES
1 | 10.8 | N#CC[C@H]1C(C(=O)c2ccccc2)=CC=CN1Cc1ccccc1
2 | 15.4 | C=CC[C@]1(C(=O)c2ccccc2)C=CCN(Cc2ccccc2)[C@H]1CC#N
